Experimental data taken from ChEMBL document CHEMBL1201862, “PubChem BioAssay data set” (2004).
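Exposure lasted 48 hours, with cells grown in 96-well plates and compounds tested at five concentrations. Abbreviation: GI50, concentration required for 50% inhibition of growth.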 Active and inactive are the calls of the source. No stated cut-off is given here; in the data, active = GI50 up to about 1.1 µM and inactive = higher. Peptide text beside a SMILES is read from it. * marks the point of attachment. Cbz = O=C(OCc1ccccc1)*; OBn = c1ccc(CO*)cc1

Assays:
Assay in all cases: inhibition of tumour cell growth, NCI panel, 48 h
SK-MEL-5 = system: SK-MEL-5
OVCAR-5 = system: OVCAR-5
SF-295 = system: SF-295
SNB-19 = system: SNB-19
DU-145 = system: DU-145
Hs-578T = system: Hs-578T
MDA-MB-435 = system: MDA-MB-435
HOP-62 = system: HOP-62
U-251 = system: U-251
NCI/ADR-RES = system: NCI/ADR-RES
OVCAR-4 = system: OVCAR-4
SNB-75 = system: SNB-75
OVCAR-3 = system: OVCAR-3
IGROV-1 = system: IGROV-1
K562 = system: K562
SF-539 = system: SF-539
HCC 2998 = system: HCC 2998
NCI-H226 = system: NCI-H226
SK-MEL-2 = system: SK-MEL-2
RPMI-8226 = system: RPMI-8226

SMILES	GI50 (SK-MEL-5)	GI50 (OVCAR-5)	GI50 (SF-295)	GI50 (SNB-19)	GI50 (DU-145)	GI50 (Hs-578T)	GI50 (MDA-MB-435)	GI50 (HOP-62)	GI50 (U-251)	GI50 (NCI/ADR-RES)	GI50 (OVCAR-4)	GI50 (SNB-75)	GI50 (OVCAR-3)	GI50 (IGROV-1)	GI50 (K562)	GI50 (SF-539)	GI50 (HCC 2998)	GI50 (NCI-H226)	GI50 (SK-MEL-2)	GI50 (RPMI-8226)
CC(=O)Oc1ccc2c(c1)[nH]c1c3ccc(OC(C)=O)cc3oc(=O)c21	15.3 µM (inactive)	> 100 µM (inactive)	44.1 µM (inactive)	23.9 µM (inactive)	33.3 µM (inactive)	31.3 µM (inactive)	27.2 µM (inactive)	29.3 µM (inactive)	30.5 µM (inactive)	> 100 µM (inactive)	42.4 µM (inactive)	51.6 µM (inactive)	24.8 µM (inactive)	39 µM (inactive)	26.5 µM (inactive)	29.9 µM (inactive)	26.5 µM (inactive)	21.8 µM (inactive)	–	–
CSc1c(C(=O)Nc2ccccc2)c(N)n(N)c(=O)c1C#N	> 100 µM (inactive)	> 100 µM (inactive)	–	> 100 µM (inactive)	> 100 µM (inactive)	> 100 µM (inactive)	> 100 µM (inactive)	–	> 100 µM (inactive)	> 100 µM (inactive)	> 100 µM (inactive)	> 100 µM (inactive)	> 100 µM (inactive)	> 100 µM (inactive)	> 100 µM (inactive)	> 100 µM (inactive)	> 100 µM (inactive)	> 100 µM (inactive)	> 100 µM (inactive)	> 100 µM (inactive)
COC[C@@H](C[C@H]1O[C@@](O)([C@H](O)[C@@H]2C[C@H](OC)[C@@H](O)CC/C=C(C)/C=C/[C@@H](O[C@@H]3O[C@@H](C)[C@H](OC)[C@@H](O)[C@@H]3O)[C@H](C)/C=C(C)/C=C(C)/C=C(\C)C(=O)O2)[C@H](C)[C@@H](O)[C@H]1C)O[C@H]1C[C@](C)(O)[C@@H](O[C@H]2C[C@@H](OC)[C@H](O)[C@@H](C)O2)C(C)O1 (stereo partly drawn)	0.182 µM (active)	> 100 µM (inactive)	0.857 µM (active)	–	> 61.8 µM (inactive)	69 µM (inactive)	> 89.1 µM (inactive)	–	0.0628 µM (active)	> 100 µM (inactive)	41.3 µM (inactive)	–	63.1 µM (inactive)	> 100 µM (inactive)	0.149 µM (active)	> 100 µM (inactive)	> 80.2 µM (inactive)	0.91 µM (active)	> 55 µM (inactive)	86.5 µM (inactive)
Cc1c(NC(=S)Nc2ccc([N+](=O)[O-])cc2)c(=O)n(-c2ccccc2)n1C	> 100 µM (inactive)	> 100 µM (inactive)	> 100 µM (inactive)	> 100 µM (inactive)	> 100 µM (inactive)	> 100 µM (inactive)	> 100 µM (inactive)	> 100 µM (inactive)	> 100 µM (inactive)	> 100 µM (inactive)	–	> 100 µM (inactive)	> 100 µM (inactive)	> 100 µM (inactive)	69.5 µM (inactive)	> 100 µM (inactive)	> 100 µM (inactive)	> 100 µM (inactive)	–	16.6 µM (inactive)
Cn1c(=O)[nH]c2sc3c(c2c1=N)CCCC3	> 75 µM (inactive)	> 75 µM (inactive)	> 75 µM (inactive)	> 75 µM (inactive)	> 75 µM (inactive)	> 75 µM (inactive)	> 75 µM (inactive)	> 75 µM (inactive)	> 75 µM (inactive)	> 75 µM (inactive)	> 75 µM (inactive)	> 75 µM (inactive)	> 75 µM (inactive)	> 75 µM (inactive)	> 75 µM (inactive)	–	58.9 µM (inactive)	> 75 µM (inactive)	0.199 µM (active)	50.1 µM (inactive)
NS(=O)(=O)c1ccc(Nc2c3ccccc3nc3c(C(=O)NCCO)cccc23)cc1	0.0853 µM (active)	0.183 µM (active)	0.191 µM (active)	0.0977 µM (active)	0.165 µM (active)	0.188 µM (active)	0.203 µM (active)	0.167 µM (active)	0.0728 µM (active)	0.408 µM (active)	0.195 µM (active)	–	0.12 µM (active)	0.115 µM (active)	0.13 µM (active)	0.131 µM (active)	0.182 µM (active)	0.113 µM (active)	0.186 µM (active)	0.0676 µM (active)
COC(=O)CNC(=O)C(C)NC(=O)C(CC(=O)OCc1ccccc1)NC(=O)OCc1ccccc1 (stereo not drawn) (Cbz-Asp(OBn)-Ala-Gly-OMe; configuration not given here)	17 µM (inactive)	39.4 µM (inactive)	33.3 µM (inactive)	57.3 µM (inactive)	93.5 µM (inactive)	43.9 µM (inactive)	37.1 µM (inactive)	> 100 µM (inactive)	47 µM (inactive)	67.1 µM (inactive)	–	72.1 µM (inactive)	75 µM (inactive)	> 100 µM (inactive)	27.5 µM (inactive)	70.8 µM (inactive)	32.9 µM (inactive)	36.1 µM (inactive)	65.5 µM (inactive)	39 µM (inactive)
NCC(O)CSCc1ccc(Cl)cc1 (stereo not drawn)	> 100 µM (inactive)	> 100 µM (inactive)	> 100 µM (inactive)	> 100 µM (inactive)	> 100 µM (inactive)	> 100 µM (inactive)	> 100 µM (inactive)	> 100 µM (inactive)	> 100 µM (inactive)	> 100 µM (inactive)	> 100 µM (inactive)	–	> 100 µM (inactive)	> 100 µM (inactive)	> 100 µM (inactive)	–	> 100 µM (inactive)	> 100 µM (inactive)	–	> 100 µM (inactive)
COc1ccc(/C=N/NC(=O)c2ccccc2Nc2ccccc2C(=O)N/N=C/c2ccc(OC)c(OC)c2)cc1OC	> 100 µM (inactive)	> 100 µM (inactive)	39.9 µM (inactive)	> 100 µM (inactive)	> 100 µM (inactive)	> 100 µM (inactive)	> 100 µM (inactive)	> 100 µM (inactive)	> 100 µM (inactive)	> 100 µM (inactive)	> 100 µM (inactive)	> 100 µM (inactive)	> 100 µM (inactive)	> 100 µM (inactive)	> 100 µM (inactive)	–	> 100 µM (inactive)	> 100 µM (inactive)	> 100 µM (inactive)	> 100 µM (inactive)
COc1ccc(OC)c2cc(Cc3ccc(N(C)C)cc3)c(=O)c(Cc3ccc(N(C)C)cc3)cc12	63.7 µM (inactive)	> 100 µM (inactive)	> 100 µM (inactive)	75.5 µM (inactive)	> 100 µM (inactive)	25.5 µM (inactive)	> 100 µM (inactive)	58.6 µM (inactive)	53.2 µM (inactive)	30.2 µM (inactive)	> 100 µM (inactive)	40.4 µM (inactive)	> 100 µM (inactive)	45.7 µM (inactive)	34.4 µM (inactive)	86.1 µM (inactive)	> 100 µM (inactive)	47.3 µM (inactive)	–	22.4 µM (inactive)
CC1=C([S+]([O-])c2ccc(C)cc2)CCC2(CCCCO2)O1 (stereo not drawn)	33.3 µM (inactive)	> 100 µM (inactive)	> 100 µM (inactive)	> 100 µM (inactive)	> 100 µM (inactive)	> 100 µM (inactive)	> 100 µM (inactive)	> 100 µM (inactive)	> 100 µM (inactive)	> 100 µM (inactive)	> 100 µM (inactive)	> 100 µM (inactive)	> 100 µM (inactive)	> 100 µM (inactive)	46.8 µM (inactive)	–	> 100 µM (inactive)	> 100 µM (inactive)	64.3 µM (inactive)	66.5 µM (inactive)
CCN(CC)c1ccc2cc(C(=O)Nc3ccc(C)cc3)c(=N)oc2c1	> 100 µM (inactive)	> 100 µM (inactive)	–	> 100 µM (inactive)	> 100 µM (inactive)	> 100 µM (inactive)	> 100 µM (inactive)	> 100 µM (inactive)	> 100 µM (inactive)	> 100 µM (inactive)	> 100 µM (inactive)	> 100 µM (inactive)	> 100 µM (inactive)	> 100 µM (inactive)	> 100 µM (inactive)	–	> 100 µM (inactive)	> 100 µM (inactive)	> 100 µM (inactive)	> 100 µM (inactive)
OC1CCCCCCCCCCC1[S+]1CCCC1.O[B-](F)(F)F (stereo not drawn)	27.7 µM (inactive)	> 100 µM (inactive)	> 100 µM (inactive)	> 100 µM (inactive)	> 100 µM (inactive)	> 100 µM (inactive)	> 100 µM (inactive)	> 100 µM (inactive)	> 100 µM (inactive)	> 100 µM (inactive)	85.9 µM (inactive)	–	52.5 µM (inactive)	> 100 µM (inactive)	29.6 µM (inactive)	> 100 µM (inactive)	> 100 µM (inactive)	50.9 µM (inactive)	> 100 µM (inactive)	36.1 µM (inactive)
C[N+](C)(C)C(C1=CCCC1=O)c1ccccc1 (stereo not drawn)	> 100 µM (inactive)	> 100 µM (inactive)	> 100 µM (inactive)	> 100 µM (inactive)	57.5 µM (inactive)	33.4 µM (inactive)	26.2 µM (inactive)	24.8 µM (inactive)	20.6 µM (inactive)	33.8 µM (inactive)	80.7 µM (inactive)	52.8 µM (inactive)	47.1 µM (inactive)	30.3 µM (inactive)	32.4 µM (inactive)	54.5 µM (inactive)	–	36.6 µM (inactive)	84.9 µM (inactive)	15.8 µM (inactive)
